# Data reported in ChEMBL document CHEMBL1201862, “PubChem BioAssay data set” (2004).
# Calls of active or inactive are those of the source.
# Key:
# [1] = target: Estrogen receptor beta (Homo sapiens, UniProt Q92731);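 note: recombinant ER-beta bound to coactivator SRC1 peptide in presence of estradiol agonist; inhibitors block coactivator peptide binding and lower the FRET signal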
# [2] = tested on: HEK293; assay: cells; conditions: Homo sapiens
# [3] = target: T1, Heat shock factor protein 1 (Mus musculus, UniProt P38532); assay: decrease of HSF1-responsive luciferase luminescence – cell-based, NIH3T3, dose retest, confirmation (AID 2382); type: functional;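 note: NIH3T3 fibroblasts with HSF1-driven luciferase reporter stressed by proteasome inhibitor MG132; luminescence from HSF1-driven luciferase expression after 8 hours of MG132 stress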
# T1 sequence (P38532 whole entry): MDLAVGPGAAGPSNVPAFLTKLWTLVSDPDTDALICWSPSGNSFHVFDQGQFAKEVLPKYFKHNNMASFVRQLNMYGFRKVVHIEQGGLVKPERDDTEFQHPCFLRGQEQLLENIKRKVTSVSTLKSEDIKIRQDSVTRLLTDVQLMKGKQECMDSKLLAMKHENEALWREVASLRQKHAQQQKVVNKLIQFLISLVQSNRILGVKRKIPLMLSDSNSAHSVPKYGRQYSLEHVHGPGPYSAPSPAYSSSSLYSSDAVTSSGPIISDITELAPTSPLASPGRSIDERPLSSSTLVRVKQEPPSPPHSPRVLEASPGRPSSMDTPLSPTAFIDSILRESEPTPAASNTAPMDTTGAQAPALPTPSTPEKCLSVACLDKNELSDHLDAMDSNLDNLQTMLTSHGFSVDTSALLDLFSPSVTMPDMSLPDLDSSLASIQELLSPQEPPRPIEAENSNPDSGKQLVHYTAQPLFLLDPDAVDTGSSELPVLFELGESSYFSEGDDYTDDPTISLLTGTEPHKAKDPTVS
# [4] = NIH3T3 cell viability loss – ATP luminescence, mouse fibroblasts, counter-screen, dose response (AID 2010); type: functional, cell-based;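 note: cells exposed to compound for about 90 hours before reading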
# [5] = Trypanosoma cruzi growth suppression in host cells – NIH3T3 host cells, beta-gal luminescence, confirmation (AID 2044); type: functional, cell-based;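 note: intracellular parasites grown in NIH/3T3 mouse fibroblasts as host cells; luminescent beta-galactosidase reporter signal from transgenic T. cruzi replicating inside host cells; inhibitors lower the luminescence signal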
# [6] = tested on: HEK293; assay: cells; conditions: Homo sapiens; remark: listed apart in the source
# [7] = Fluorescence-based cell-based high throughput dose response assay for inhibitors of the interaction of nucleotide-binding oligomerization domain containing 2 (NOD2) and the receptor-interacting serine-threonine kinase 2 (RIPK2).; type: functional; conditions: Homo sapiens
# [8] = NIH-3T3 fibroblast cytotoxicity, dose response, cytotoxicity control, cell-based, fluorescence, Alamar Blue, secondary assay (AID 2327); type: functional;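 note: NIH-3T3 mouse fibroblasts cultured with fluconazole at 8 µg/mL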
# [9] = target: T2, Exodeoxyribonuclease V (Escherichia coli (strain K12), UniProt P04993+P07648+P08394); assay: RecBCD inhibition via phage-restricted bacterial growth – absorbance, V66 E. coli, mutant T4 phage, counter-screen for AddAB inhibitor project, dose response (AID 492957); type: functional, cell-based, Escherichia coli str. K-12 substr. MG1655
# T2 sequence (P04993 whole entry): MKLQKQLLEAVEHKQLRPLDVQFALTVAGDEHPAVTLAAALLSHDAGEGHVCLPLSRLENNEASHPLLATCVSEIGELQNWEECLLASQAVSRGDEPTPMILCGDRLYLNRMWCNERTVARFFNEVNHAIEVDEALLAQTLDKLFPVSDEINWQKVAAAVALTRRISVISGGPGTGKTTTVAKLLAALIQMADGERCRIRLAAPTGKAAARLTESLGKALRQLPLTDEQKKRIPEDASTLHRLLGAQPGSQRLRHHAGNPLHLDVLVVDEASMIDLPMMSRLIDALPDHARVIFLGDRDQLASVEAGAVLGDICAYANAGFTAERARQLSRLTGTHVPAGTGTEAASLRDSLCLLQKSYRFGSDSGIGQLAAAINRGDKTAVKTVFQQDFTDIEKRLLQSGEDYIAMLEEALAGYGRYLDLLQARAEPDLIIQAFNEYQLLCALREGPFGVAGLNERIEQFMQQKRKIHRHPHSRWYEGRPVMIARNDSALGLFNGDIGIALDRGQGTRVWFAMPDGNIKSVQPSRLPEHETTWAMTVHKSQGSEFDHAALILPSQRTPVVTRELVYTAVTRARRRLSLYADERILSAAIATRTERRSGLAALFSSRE
# T2 sequence (P07648 whole entry): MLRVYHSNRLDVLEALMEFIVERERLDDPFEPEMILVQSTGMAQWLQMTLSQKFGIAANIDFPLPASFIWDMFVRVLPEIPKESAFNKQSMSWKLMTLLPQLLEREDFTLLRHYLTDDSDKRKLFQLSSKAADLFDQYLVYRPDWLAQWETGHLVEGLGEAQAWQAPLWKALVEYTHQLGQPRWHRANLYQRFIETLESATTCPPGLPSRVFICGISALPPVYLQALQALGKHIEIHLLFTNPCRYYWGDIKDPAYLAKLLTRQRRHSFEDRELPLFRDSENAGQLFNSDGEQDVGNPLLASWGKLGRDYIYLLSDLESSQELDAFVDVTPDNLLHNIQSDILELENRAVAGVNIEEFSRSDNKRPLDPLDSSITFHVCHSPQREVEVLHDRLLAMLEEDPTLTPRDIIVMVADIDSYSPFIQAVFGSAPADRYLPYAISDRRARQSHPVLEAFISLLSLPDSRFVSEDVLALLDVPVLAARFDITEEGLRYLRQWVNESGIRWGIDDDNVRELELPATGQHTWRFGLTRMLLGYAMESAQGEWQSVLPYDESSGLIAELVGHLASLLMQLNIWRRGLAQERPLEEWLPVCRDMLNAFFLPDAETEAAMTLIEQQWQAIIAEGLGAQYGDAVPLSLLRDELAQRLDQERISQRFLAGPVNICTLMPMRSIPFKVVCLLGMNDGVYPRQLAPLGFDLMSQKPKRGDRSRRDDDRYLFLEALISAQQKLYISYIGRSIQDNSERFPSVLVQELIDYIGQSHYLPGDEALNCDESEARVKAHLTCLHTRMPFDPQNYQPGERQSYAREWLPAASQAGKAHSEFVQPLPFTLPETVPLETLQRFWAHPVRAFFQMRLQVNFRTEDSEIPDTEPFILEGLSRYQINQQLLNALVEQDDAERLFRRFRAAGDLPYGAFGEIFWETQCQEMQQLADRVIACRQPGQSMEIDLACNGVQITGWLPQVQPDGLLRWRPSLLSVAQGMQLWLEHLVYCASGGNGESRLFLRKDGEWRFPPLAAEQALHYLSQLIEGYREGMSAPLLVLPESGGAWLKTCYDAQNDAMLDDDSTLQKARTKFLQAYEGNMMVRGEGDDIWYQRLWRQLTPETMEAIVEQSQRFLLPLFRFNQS
# T2 sequence (P08394 whole entry): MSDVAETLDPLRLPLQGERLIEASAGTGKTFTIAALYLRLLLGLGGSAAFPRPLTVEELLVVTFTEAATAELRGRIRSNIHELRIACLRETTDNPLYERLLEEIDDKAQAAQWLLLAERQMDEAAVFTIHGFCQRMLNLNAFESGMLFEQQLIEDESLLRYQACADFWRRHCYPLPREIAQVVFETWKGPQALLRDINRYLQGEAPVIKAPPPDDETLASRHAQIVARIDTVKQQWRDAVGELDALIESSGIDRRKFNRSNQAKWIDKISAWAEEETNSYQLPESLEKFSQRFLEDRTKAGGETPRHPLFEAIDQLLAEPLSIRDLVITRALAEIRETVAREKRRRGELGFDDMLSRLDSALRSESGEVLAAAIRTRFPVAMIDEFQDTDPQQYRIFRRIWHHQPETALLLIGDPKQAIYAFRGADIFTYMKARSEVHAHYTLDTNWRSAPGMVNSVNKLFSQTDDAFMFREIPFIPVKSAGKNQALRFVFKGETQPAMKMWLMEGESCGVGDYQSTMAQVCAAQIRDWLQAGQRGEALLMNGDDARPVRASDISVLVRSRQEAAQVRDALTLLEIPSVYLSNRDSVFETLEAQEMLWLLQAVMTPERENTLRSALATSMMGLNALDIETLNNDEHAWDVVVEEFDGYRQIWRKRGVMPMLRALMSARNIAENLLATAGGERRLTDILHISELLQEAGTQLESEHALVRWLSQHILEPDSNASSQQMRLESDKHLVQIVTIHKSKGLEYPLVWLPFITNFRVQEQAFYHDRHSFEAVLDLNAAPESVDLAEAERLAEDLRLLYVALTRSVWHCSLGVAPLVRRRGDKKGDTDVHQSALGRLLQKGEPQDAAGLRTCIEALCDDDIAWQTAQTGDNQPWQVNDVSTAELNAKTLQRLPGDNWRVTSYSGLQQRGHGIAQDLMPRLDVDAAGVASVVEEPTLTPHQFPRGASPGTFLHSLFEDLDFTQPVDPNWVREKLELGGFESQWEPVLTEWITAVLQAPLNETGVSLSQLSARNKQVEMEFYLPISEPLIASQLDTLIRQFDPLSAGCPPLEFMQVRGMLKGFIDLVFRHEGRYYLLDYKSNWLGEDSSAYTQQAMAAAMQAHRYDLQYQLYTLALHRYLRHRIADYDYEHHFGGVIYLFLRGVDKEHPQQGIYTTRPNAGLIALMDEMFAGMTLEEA
# [10] = Counterscreen for AddAB inhibitors: absorbance-based bacterial cell-based high throughput dose response assay for inhibitors of bacterial viability. [Related pubchem assays (depositor defined):AID435030, AID449728, AID449731, AID488942, AID488955, AID488956]; type: functional
# [11] = target: Albumin (Bos taurus, UniProt P02769); assay: Counterscreen for inhibitors of T-cell receptor (TCR)-CD3 interaction: Fluorescence-based biochemical high throughput dose response assay to identify inhibitors of T-cell receptor (TCR)-CD3 interaction using a TAMRA-labeled BSA probe.; type: functional
# Albumin, sequence (P02769 whole entry): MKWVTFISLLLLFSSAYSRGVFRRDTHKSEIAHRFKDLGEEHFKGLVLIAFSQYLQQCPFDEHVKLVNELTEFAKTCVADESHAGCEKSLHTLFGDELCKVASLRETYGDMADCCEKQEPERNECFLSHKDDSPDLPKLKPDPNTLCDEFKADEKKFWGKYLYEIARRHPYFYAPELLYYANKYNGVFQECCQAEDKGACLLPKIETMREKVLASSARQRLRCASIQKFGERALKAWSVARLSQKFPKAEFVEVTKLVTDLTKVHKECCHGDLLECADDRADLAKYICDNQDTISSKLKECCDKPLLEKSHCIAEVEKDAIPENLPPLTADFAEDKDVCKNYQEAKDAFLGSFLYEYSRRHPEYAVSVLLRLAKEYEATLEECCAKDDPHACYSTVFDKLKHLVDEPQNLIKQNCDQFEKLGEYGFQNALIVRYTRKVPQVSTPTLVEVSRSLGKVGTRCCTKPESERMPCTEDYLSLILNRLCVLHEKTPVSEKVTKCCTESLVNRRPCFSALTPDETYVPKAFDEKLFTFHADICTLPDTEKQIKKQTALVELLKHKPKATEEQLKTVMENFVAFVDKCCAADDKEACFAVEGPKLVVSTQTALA
# [12] = MIN6 cell viability loss – mouse insulinoma, cytotoxicity control, dose response (AID 2122); type: functional;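 note: confirmatory high-throughput counterscreen run to flag cytotoxic compounds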
# [13] = decrease of insulin promoter-GFP reporter – imaging, high-content screening, mouse beta cells (AID 1628); type: functional; conditions: MIN6
# [14] = Luminescence Cell-Based Dose Response HTS to Identify Inhibitors of 5'UTR Stem-Loop Driven Prion Protein mRNA Translation in H4 Neuroglioblastoma Cells. [Related pubchem assays: 1827 (Project Summary), 1813 (Primary HTS)]; type: functional
# [15] = alpha-synuclein stem-loop luciferase translation blockers – H4 neuroglioma cells, luminescence, confirmation (AID 1988); type: functional, cell-based
# [16] = luciferase reporter signal suppression in cells – H4 neuroglioma cells, luminescence, dose response (AID 1990); type: functional, cell-based
# [17] = tested on: INS1; assay: INS-1E survival protection against cytokine death – cell-based, luminescence, retest, dose response (AID 449756); type: functional; conditions: Rattus norvegicus;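 note: cell death triggered by IL-1 beta plus TNF-alpha plus IFN-gamma mixture; protective hits raise ATP signal compared with cytokine alone wells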
# [18] = Luminescence Cell-Based Dose Retest to Confirm Inhibitors of Cancer Stem Cells. [Related pubchem assays (depositor defined):AID2717, AID2721]; type: functional; conditions: Homo sapiens
# [19] = cells; type: functional, cell-based
# [20] = cells; type: functional, cell-based; remark: listed apart in the source
# Estrogen receptor beta, sequence (Q92731 whole entry): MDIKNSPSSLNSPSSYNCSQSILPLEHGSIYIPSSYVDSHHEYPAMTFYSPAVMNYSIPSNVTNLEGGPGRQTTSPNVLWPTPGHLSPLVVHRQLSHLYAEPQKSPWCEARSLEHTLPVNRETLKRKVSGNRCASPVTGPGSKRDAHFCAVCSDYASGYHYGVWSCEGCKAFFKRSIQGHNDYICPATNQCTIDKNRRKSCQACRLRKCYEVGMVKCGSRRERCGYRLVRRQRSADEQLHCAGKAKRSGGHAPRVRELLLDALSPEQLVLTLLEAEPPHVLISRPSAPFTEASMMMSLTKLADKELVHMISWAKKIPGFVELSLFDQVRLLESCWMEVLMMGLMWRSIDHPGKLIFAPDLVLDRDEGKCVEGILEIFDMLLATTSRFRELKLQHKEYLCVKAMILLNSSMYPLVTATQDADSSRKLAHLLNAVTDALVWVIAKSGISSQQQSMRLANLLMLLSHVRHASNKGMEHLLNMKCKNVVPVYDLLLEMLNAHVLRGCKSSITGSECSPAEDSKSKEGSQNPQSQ
compound,measurement,setting,value
CCc1ccc(C(=O)Cn2ncc(Cl)c(Cl)c2=O)cc1,IC50,[1],> 50 µM (not active)
same,EC50,[2],> 59.6 µM (inactive)
same,EC50,[3],5.77 µM (active)
same,EC50,[4],4.03 µM (active)
same,EC50,[5],2.19 µM (active)
same,EC50,[6],> 59.6 µM (inactive)
same,IC50,[7],3.38 µM (active)
COc1ccccc1NC(=O)NNC(=O)c1cc2ccccc2cc1O,EC50,[8],> 160 µM (inactive)
same,IC50,[9],> 119 µM (inactive)
same,IC50,[10],> 119 µM (inactive)
same,IC50,[11],> 94.1 µM (inactive)
CCN(CC)C1=CC(=[N+]2CCCC2)CC(C)(C)C1,IC50,[12],< 0.25 µM (active)
same,IC50,[13],< 0.25 µM (active)
same,EC50,[4],> 60 µM (inconclusive)
same,EC50,[5],0.732 µM (active)
CCN1CCN(S(=O)(=O)c2cc(OCC(=O)NC3CCCCC3)c(C)cc2Cl)CC1,IC50,[12],2.03 µM (active)
same,IC50,[13],2.29 µM (active)
CC1(c2ccc([N+](=O)[O-])cc2)CC(C)(C)N(C(=O)c2ccccc2)c2ccccc21 (stereo not given),IC50,[12],7.16 µM (active)
same,IC50,[13],7.17 µM (active)
C/C=C/CSc1nc2c(c(=O)[nH]c(=O)n2C)n1Cc1ccc(C)cc1,EC50,[14],> 120 µM (not active)
same,EC50,[2],> 59.6 µM (inactive)
same,EC50,[15],21.4 µM (active)
same,EC50,[16],21.2 µM (active)
same,EC50,[6],> 59.6 µM (inactive)
Cc1cc([N+](=O)[O-])nn1Cc1ccc(C(=O)N/N=C/c2ccc(O)cc2O)cc1,AC50,[17],1.37 µM (active)
same,IC50,[9],> 119 µM (inactive)
same,IC50,[10],> 119 µM (inactive)
same,AC50,[18],1.71 µM (active)
same,EC50,[19],9.79 µM (active)
same,EC50,[20],> 350 µM (not active)
